From patent US20030236212A1, “Functionalized long chain derivatives as acyl coenzyme-A mimics, compositions thereof, and methods of cholesterol management and related uses” (priority 2002, published 2003) come the findings set out here.

Like-named read-outs stand apart in the source and are kept apart here.

One data set relates to primary rat hepatocytes. As to the kind of experiment: Synthesis of total lipids (14C-acetate labeling) in primary rat hepatocytes. In kind it is cell-based. The note with it: for IC50: Rattus norvegicus, Hepatocyte, read-out: IC50, inhibition of lipid synthesis in primary hepatocytes. The protocol:
A male Sprague-Dawley rate was anesthetized by administration of sodium pentobarbitol by intraperitoneal at 80 mg/kg. In situ perfusion of the liver was performed as follows. The abdomen of the animal was opened, the portal vein canulated, and the liver perfused with WOSH solution (149 mM NaCl, 9.2 mM Na HEPES, 1.7 mM Fructose, 0.5 mM EGTA, 0.029 mM Phenol red, 10 U/ml heparin, pH 7.5) at a flow rate of 30 ml/min for 6 minutes. To digest the liver, DSC solution (6.7 mM KCl, 143 mM NaCl, 9.2 mM Na HEPES, 5 mM CaCl2-2H2O, 1.7 mM Fructose, 0.029 mM Phenol red, 0.2% BSA, 100 U/ml collagenase Type 1,160 BAEE/ml trypsin inhibitor, pH 7.5) was perfused through the liver at a flow rate of 30 ml/min for 6 minutes at a temperature of 37° C. After digestion, cells were dispersed in a solution of DMEM-(DMEM containing 2 mM GlutMax-1, 0.2% BSA, 5% FBS, 12 nM insulin, 1.2 μM hydrocortisone) to stop the digestion process. The crude cell suspension was filtered through three layers of stainless steel mesh with pore sizes of 250, 106, and 75 μm respectively. Filtered cells were centrifuged at 50×g for two minutes and the supernatant discarded. The resulting cell pellet was resuspended in DMEM and centrifuged again. This final cell pellet was resuspended in DMEM+HS solution (DMEM containing 2 mM GlutMax-1, 20 mM delta-aminolevulinic acid, 17.4 mM MEM nonessential amino acids, 20% FBS, 12 nM insulin, 1.2 μM hydrocortisone) and plated to form monolayer cultures at a density of 100×10^3 cells/cm^2 on collagen coated culture dishes.
To test the effect of an illustrative compound of the invention on synthesis rates of total lipids, the monolayer cultures were exposed to 1, 3, 10, 30, 100, or 300 μM of Compound A or 10 μM of Compound 1 in DMEM+containing 1 μCi/ml 14C-acetate, D-glucose, hepes, glutamine, leucine, alanine, lactate, pyruvate, non-essential amino acids, BSA, and gentamicine. Control cells were exposed to the same media lacking lovastatin or the test compounds. All cells were exposed to 0.1% DMSO. Metabolic labeling with ^14C-acetate continued for 4 hr at 37° C. After labeling, cells were washed twice with 1 mL of PBS followed by addition of scintallant (Microscent E) and counted on Topcount®.

Another data set relates to obese female Zucker rats. Put plainly: Oral daily treatment of obese female Zucker rats for 14 days (body weight, serum lipids, glucose, insulin). Format: in vivo, rat. The note with it: for change in vivo at 100 mg/kg/day / change in vivo at 100 mg/kg: 100 mg/kg/day. More on the design: HDL-C / Glucose / Insulin / NEFA / BHA / TG / TC / Non HDL-C: unit not given here. The procedure:
The dosing vehicle was administered to control animals in parallel experiments.
Body weight was determined daily prior to dosing. Animals were allowed free access to rodent chow and water throughout the study. Blood glucose was determined after a 6-hour fast in the afternoon without anesthesia from a tail vein. Serum was also prepared from a blood sample subsequently obtained from the orbital venous plexus (with O2/CO2 anesthesia) prior to and after one week treatment and used lipid and insulin determinations. At two weeks, blood glucose was again determined after a 6-hour fast without anesthesia from a tail vein. Soon thereafter, animals were sacrificed by CO2 inhalation in the afternoon and cardiac blood serum was collected and assessed for various lipids and insulin.

The mark [1] stands for this setting: obese female Zucker rats, oral gavage daily 14 days, 5 mg/kg.
Setting [2] is: obese female Zucker rats, oral, 14 days, 100 mg/kg/day (Table 1).
[3] abbreviates: Rattus norvegicus, 336 h, obese female Zucker rats, oral daily, fourteen days, read-out: % wt. gain.
Where [4] appears, read: Rattus norvegicus, 336 h, obese female Zucker rats, oral daily, fourteen days, read-out: BHA, Percent Change from Pre-treatment.
Where [5] appears, read: Rattus norvegicus, 336 h, obese female Zucker rats, oral daily, fourteen days, read-out: Glucose, Percent Change from Pre-treatment.
[6] abbreviates: Rattus norvegicus, 336 h, obese female Zucker rats, oral daily, fourteen days, read-out: HDL-C, Percent Change from Pre-treatment.
The mark [7] stands for this setting: Rattus norvegicus, 336 h, obese female Zucker rats, oral daily, fourteen days, read-out: Insulin, Percent Change from Pre-treatment.
Where [8] appears, read: Rattus norvegicus, 336 h, obese female Zucker rats, oral daily, fourteen days, read-out: NEFA, Percent Change from Pre-treatment.
Where [9] appears, read: Rattus norvegicus, 336 h, obese female Zucker rats, oral daily, fourteen days, read-out: Non HDL-C, Percent Change from Pre-treatment.
The mark [10] stands for this setting: Rattus norvegicus, 336 h, obese female Zucker rats, oral daily, fourteen days, read-out: TC, Percent Change from Pre-treatment.
Where [11] appears, read: Rattus norvegicus, 336 h, obese female Zucker rats, oral daily, fourteen days, read-out: TG, Percent Change from Pre-treatment.

`CC(C)(CCCCOCCCCC(C)(C)COP(=O)(O)O)COP(=O)(O)O`: in the data set on primary rat hepatocytes, the IC50 amounted to 43 µM.

As to `CC(C)(CCCCC(=O)CCCCC(C)(C)COP(=O)(O)O)COP(=O)(O)O`, the IC50 with primary rat hepatocytes was determined as 16 µM.

Turning to `CC(C)(CCCCCOCCCCCC(C)(C)COP(=O)(O)O)COP(=O)(O)O`, the concentration for half-maximal inhibition (IC50) with primary rat hepatocytes came to 28 µM.

For `CC(C)(CCCCCC(=O)CCCCCC(C)(C)COP(=O)(O)O)COP(=O)(O)O`, in the data set with primary rat hepatocytes, the half-inhibitory concentration (IC50) was 35 µM.

Take `CC(C)(CO)CCCCOCCCCC(C)(C)CO` [Compound 1, bis(6-Hydroxy-5,5-dimethylhexyl)ether, reference compound]: the blood glucose levels entry in the data set on obese female Zucker rats (fasted obese female Zucker rats, oral gavage daily 14 days, 5 mg/kg) is “reduction”. In addition, the “serum insulin relative to pretreatment” value in the data set on obese female Zucker rats (fasted obese female Zucker rats, two weeks of treatment, 5 mg/kg) was “increased”. Besides, in the data set on obese female Zucker rats (setting [1]), the “liver to body weight” value was “increased”; the serum total cholesterol result was “only modestly elevated”; the “weight gain, percent of initial weight after two weeks” value is reported as 1.5%. In the data set on obese female Zucker rats (setting [2]), the BHA is 1.6 ± 0.3, the Glucose is recorded as −25.3 ± 7.2, the HDL-C was 113.9 ± 26.4 and the Insulin is recorded as 42.1 ± 23. For the same compound, in the data set on obese female Zucker rats (setting [2]), the NEFA turned out to be 0.056 ± 0.002, the “Non HDL-C” value is −26.9 ± 9.3, the TC is reported as −82.5 ± 3.6 and the TG is listed as 468.8 ± 139.7. The “reduction of rates of total lipid synthesis” value with primary rat hepatocytes (rat hepatocyte cells, 10 μM, 14C-acetate 4 hr, vs vehicle control) is “at least 65%”.

In turn, `CC(C)(CCCCC(=O)CCCCC(C)(C)COP(=O)(O)O)COP(=O)(O)O.N.N` [Compound D, Phosphoric Acid mono-(2,2,12,12-tetramethyl-7-oxo-13-phosphonooxytridecyl) ester, diammonium salt] had a melting point of 191 to 193 °C. Further, the change in vivo at 10 mg/kg/day in the data set on obese female Zucker rats (Rattus norvegicus, 336 h, obese female Zucker rats, oral daily, fourteen days, 10 mg/kg/day, read-out: % wt. gain) came out at 12%. Besides, in the data set with obese female Zucker rats (Rattus norvegicus, 336 h, obese female Zucker rats, oral daily, fourteen days, 10 mg/kg/day, read-out: BHA, Percent Change from Pre-treatment), the change in vivo at 10 mg/kg is 123%. In addition, the change in vivo at 10 mg/kg in the data set with obese female Zucker rats (Rattus norvegicus, 336 h, obese female Zucker rats, oral daily, fourteen days, 10 mg/kg/day, read-out: Glucose, Percent Change from Pre-treatment) was -5%. Further, the change in vivo at 10 mg/kg in the data set with obese female Zucker rats (Rattus norvegicus, 336 h, obese female Zucker rats, oral daily, fourteen days, 10 mg/kg/day, read-out: HDL-C, Percent Change from Pre-treatment) amounted to 5%. Besides, in the data set on obese female Zucker rats (Rattus norvegicus, 336 h, obese female Zucker rats, oral daily, fourteen days, 10 mg/kg/day, read-out: Insulin, Percent Change from Pre-treatment), the change in vivo at 10 mg/kg stood at 4%. The change in vivo at 10 mg/kg with obese female Zucker rats (Rattus norvegicus, 336 h, obese female Zucker rats, oral daily, fourteen days, 10 mg/kg/day, read-out: NEFA, Percent Change from Pre-treatment) is -13%. In addition, the change in vivo at 10 mg/kg with obese female Zucker rats (Rattus norvegicus, 336 h, obese female Zucker rats, oral daily, fourteen days, 10 mg/kg/day, read-out: Non HDL-C, Percent Change from Pre-treatment) came to 25%. The change in vivo at 10 mg/kg in the data set with obese female Zucker rats (Rattus norvegicus, 336 h, obese female Zucker rats, oral daily, fourteen days, 10 mg/kg/day, read-out: TC, Percent Change from Pre-treatment) stood at 8%. The change in vivo at 10 mg/kg in the data set with obese female Zucker rats (Rattus norvegicus, 336 h, obese female Zucker rats, oral daily, fourteen days, 10 mg/kg/day, read-out: TG, Percent Change from Pre-treatment) turned out to be 11%. The change in vivo at 30 mg/kg/day with obese female Zucker rats (Rattus norvegicus, 336 h, obese female Zucker rats, oral daily, fourteen days, 30 mg/kg/day, read-out: % wt. gain) came out at 9%. Moreover, in the data set on obese female Zucker rats (Rattus norvegicus, 336 h, obese female Zucker rats, oral daily, fourteen days, 30 mg/kg/day, read-out: BHA, Percent Change from Pre-treatment), the change in vivo at 30 mg/kg stood at 271%. Further, the change in vivo at 30 mg/kg in the data set on obese female Zucker rats (Rattus norvegicus, 336 h, obese female Zucker rats, oral daily, fourteen days, 30 mg/kg/day, read-out: Glucose, Percent Change from Pre-treatment) was -4%. For the same compound, in the data set with obese female Zucker rats (Rattus norvegicus, 336 h, obese female Zucker rats, oral daily, fourteen days, 30 mg/kg/day, read-out: HDL-C, Percent Change from Pre-treatment), the change in vivo at 30 mg/kg came to 28%. Further, in the data set with obese female Zucker rats (Rattus norvegicus, 336 h, obese female Zucker rats, oral daily, fourteen days, 30 mg/kg/day, read-out: Insulin, Percent Change from Pre-treatment), the change in vivo at 30 mg/kg was determined as 2%. Further, the change in vivo at 30 mg/kg with obese female Zucker rats (Rattus norvegicus, 336 h, obese female Zucker rats, oral daily, fourteen days, 30 mg/kg/day, read-out: NEFA, Percent Change from Pre-treatment) was -25%. In addition, the change in vivo at 30 mg/kg in the data set on obese female Zucker rats (Rattus norvegicus, 336 h, obese female Zucker rats, oral daily, fourteen days, 30 mg/kg/day, read-out: Non HDL-C, Percent Change from Pre-treatment) worked out at 22%. In the data set with obese female Zucker rats (Rattus norvegicus, 336 h, obese female Zucker rats, oral daily, fourteen days, 30 mg/kg/day, read-out: TC, Percent Change from Pre-treatment), the change in vivo at 30 mg/kg amounted to 21%. For the same compound, the change in vivo at 30 mg/kg with obese female Zucker rats (Rattus norvegicus, 336 h, obese female Zucker rats, oral daily, fourteen days, 30 mg/kg/day, read-out: TG, Percent Change from Pre-treatment) is -12%. In addition, the change in vivo at 100 mg/kg/day in the data set with obese female Zucker rats (setting [3]) turned out to be 8%. In addition, the change in vivo at 100 mg/kg with obese female Zucker rats (setting [4]) was 814%. In addition, in the data set on obese female Zucker rats (setting [5]), the change in vivo at 100 mg/kg was -3%. For the same compound, the change in vivo at 100 mg/kg in the data set with obese female Zucker rats (setting [6]) is 57%. Moreover, the change in vivo at 100 mg/kg in the data set on obese female Zucker rats (setting [7]) stood at 14%. The change in vivo at 100 mg/kg in the data set on obese female Zucker rats (setting [8]) was -22%. Further, in the data set on obese female Zucker rats (setting [9]), the change in vivo at 100 mg/kg was found to be 71%. The change in vivo at 100 mg/kg with obese female Zucker rats (setting [10]) was 55%. Besides, in the data set with obese female Zucker rats (setting [11]), the change in vivo at 100 mg/kg is -1%.

`CC(=O)C(CCCCC(C)(C)CO)CCCCC(C)(C)CO` [Compound G, 9-Hydroxy-3-(6-hydroxy-5,5-dimethylhexyl)-8,8-dimethylnonan-2-one] yielded a melting point of 178 to 180 °C.

Regarding `CC(C)(CO)CCCCN(O)CCCCC(C)(C)CO` [Compound I], the melting point worked out at 73 °C.

For the compound `CC(C)(CO)CCCCNC(=O)OCCCCC(C)(C)CO` [Compound M, (6-Hydroxy-5,5-dimethylhexyl)-carbamic acid 6-hydroxy-5,5-dimethylhexyl ester], the change in vivo at 100 mg/kg/day in the data set with obese female Zucker rats (setting [3]) came to 20%. Moreover, the change in vivo at 100 mg/kg with obese female Zucker rats (setting [4]) was 145%; in the data set on obese female Zucker rats (setting [5]) it was 2%; with obese female Zucker rats (setting [6]) it was 65%; in the data set on obese female Zucker rats (setting [7]), 26%; with obese female Zucker rats (setting [8]), -53%; in the data set on obese female Zucker rats (setting [9]), 84%. In addition, the change in vivo at 100 mg/kg with obese female Zucker rats (setting [10]) was 70%; in the data set on obese female Zucker rats (setting [11]), -4%.

On to `CC(=O)C(CCCCC(C)(C)CO)CCCCC(C)(C)CO` [drawing 124], for which the IC50 in the data set on primary rat hepatocytes stood at 62 µM.

For `CC(C)(CO)CCCCN(O)CCCCC(C)(C)CO` [drawing 125], the half-inhibitory concentration (IC50) with primary rat hepatocytes worked out at 64 µM.

Turning to `CC(C)(CO)CCCCOC(=O)CCCCC(C)(C)CO` [drawing 126], in the data set on primary rat hepatocytes, the 50% inhibitory concentration (IC50) worked out at 14 µM.
